Source: patent US20080132533A1, “Solid Dispersion Comprising Tacrolimus and Entericcoated Macromolecule” (GL PharmTech Corp., priority 2005, published 2008)
≈ marks a conversion by molar mass, not a printed value.

How the values were obtained:
[1] = background art; mass unit printed as an image character; cited from earlier work
[2] = Dynamic solubility test in water; type: physicochemical; conditions: thermodynamic from solid, 100 mL water, 37° C., 200 rpm, read-out: Solubility of tacrolimus (mean ± SD)
Description: The excessive specimens were loaded and appropriate aliquots were collected after 0.5, 1, 2, 4, and 8 hours, and the samples were analyzed by high performance liquid chromatography.

- solubility at 1 h ([2]; 1 hr): 0.28 ± 0.05 µg/mL (≈ 0.348 µM)
- solubility at 2 h ([2]; 2 hr): 0.68 ± 0.02 µg/mL (≈ 0.846 µM)
- solubility at 4 h ([2]; 4 hr): 0.74 ± 0.01 µg/mL (≈ 0.92 µM)
- solubility at 8 h ([2]; 8 hr): 0.96 ± 0.05 µg/mL (≈ 1.19 µM)
SMILES: C=CC[C@@H]1/C=C(\C)C[C@H](C)C[C@H](OC)[C@H]2O[C@@](O)(C(=O)C(=O)N3CCCC[C@H]3C(=O)O[C@H](/C(C)=C/[C@@H]3CC[C@@H](O)[C@H](OC)C3)[C@H](C)[C@@H](O)CC1=O)[C@H](C)C[C@@H]2OC [Control, tacrolimus]
- Solubility of tacrolimus in water [1]: 1˜2 /mL
